pKd: −log10 of the molar value. Read-outs that look alike come from different tables or passages of the source.
Experiments:
[1] = biological target: T1, p53-Y220C (Homo sapiens, UniProt P04637, M133L/N239Y/N268D/V203A/Y220C); settings: cited from earlier work
T1 construct: Stabilized p53-Y220C DBD (residues 94−312) was expressed and purified as previously described; 6xHis (N, cleaved yes); lipoyl domain (N, cleaved yes); TEV protease cleavage site (N, cleaved yes); made in house; host or cells: E. coli Rosetta2 plac I

[2] = biological target: T1, p53-Y220C; experiment: Binding affinity by isothermal titration calorimetry (ITC); settings: for LE (kcal/mol/NHA): ligand efficiency; for fold reduction in binding affinity compared with 4: versus unsubstituted pyrrole reference 4
Method: Isothermal Titration Calorimetry (ITC)
ITC experiments were conducted using a MicroCal iTC200 calorimeter. For forward titrations, the cell unit contained 25-50 μM protein in freshly dialyzed assay buffer (25 mM KPi, 150 mM NaCl, 1 mM TCEP, pH 7.2) with a final DMSO content of 5% (v/v), and the syringe contained 0.5-5 mM compound […]
the same buffer. Injection steps used were 2 µL (initial injection: 0.5 µL) at a rate of 2 µL/s with 120 s or 240 s spacing, and all experiments were performed at 25-30 °C. Data were analyzed using MicroCal PEAQ-ITC analysis software. […]

[3] = biological target: T1, p53-Y220C; experiment: Thermal stabilization (ΔTm) by differential scanning fluorimetry (DSF); format: binding; settings: 10× SYPRO Orange; for ΔTm at 200 µM: 8 μM protein; for ΔTm (°C) [L] = 200 μM: Table 1, 8 μM protein
Method: Differential Scanning Fluorimetry (DSF)
Protein thermal stabilization was determined using SYPRO orange (Life Technologies) as a dye that increases in fluorescence quantitatively upon binding to hydrophobic protein surfaces exposed upon thermal denaturation. Real-time melt analysis was recorded on a Bio-rad CFX Connect Real-time qPCR system. DSF measurements were performed using 8 μM protein and 10x SYPRO orange in assay buffer (25 mM KPi, 150 mM NaCl, 1 mM TCEP, pH 7.2) at a final DMSO concentration of 5% (v/v). ΔT m values were calculated as ΔT m = T m (protein + compound) − T m (protein). ΔT m values are reported as an average of three independent measurements. […]

[4] = biological target: T1, p53-Y220C; settings: cited from earlier work; for stabilization of p53-Y220C (DSF): in vitro
[5] = biological target: T1, p53-Y220C; experiment: Binding affinity by isothermal titration calorimetry (ITC); settings: Table 2; ITC reverse titrations, 4–15 μM ligand, 100–147 μM protein
[6] = system: p53-Y220C cancer cell lines HUH-7, BXPC-3, NUGC-3; settings: cited from earlier work
[7] = system: p53; set-up: method as in PMID 31633398; settings: in vitro; cited from earlier work
[8] = system: NUGC-3 (p53-Y220C); set-up: method as in PMID 29702446; settings: at 10 μM; cited from earlier work
[9] = system: p53 target genes PUMA, 9p21, BTG2, FAS, TNF, and TNFRSF10B; set-up: method as in PMID 29702446; settings: qPCR; cited from earlier work

Row | Structure (SMILES) | pKd ([2]; Table 1, ITC, [prot] = 50 μM) | LE (kcal/mol/NHA) ([2]; Table 1) | ΔTm at 200 µM ([3]; Table 1, [L] = 200 μM) [°C] | melting point | other results
1 | CN(C)Cc1ccc2c(c1)c1ccccc1n2CC(F)(F)F [compound 6] |  |  |  |  | pKd ([1]; supplementary CSV, previously reported compounds, no reference printed in the file): 4.43
2 | COc1c(I)cc(C(=O)O)c(O)c1I [compound 62] | 3.92 | 0.38 | 1.5 | 197 to 198 °C (dec.) | 
3 | CCc1ccn(-c2c(I)cc(C(=O)O)c(O)c2I)c1 [compound 47] |  |  | 0.5 |  | ΔTm (°C) [L] = 200 μM [3]: induced virtually no stabilization
4 | CC(=O)c1ccn(-c2c(I)cc(C(=O)O)c(O)c2I)c1 [compound 46] |  |  |  | 235 to 236 °C (dec.) | 
5 | O=C(O)c1cc(I)c(-n2cc(F)c(F)c2)c(I)c1O [compound 22] | 4.60 | 0.33 | 1.9 | 217 to 218 °C (dec.) | 
6 | CCN(CC)c1nc2c(C(=O)O)c(O)c(I)c(-n3cccc3)c2s1 [compound 2, reference compound] |  |  |  |  | stabilization of p53-Y220C (DSF) [4]: stabilize p53-Y220C in vitro in a concentration-dependent manner; LE (kcal/mol/NHA) ([2]; Table 2): 0.34 kcal/mol/NHA; pKd [5]: 5.92; ΔTm at 200 µM ([3]; Table 2, [L] = 200 μM): 2.3 °C
7 | CCN(CC)c1nc2c(C(=O)O)c(O)c(I)c(-n3ccc(F)c3)c2s1 [compound 87] |  |  |  |  | LE (kcal/mol/NHA) ([2]; Table 2): 0.35 kcal/mol/NHA; fold improvement in affinity compared with parent 2 ([2]; versus parent MB710 (2)): approximately 4 fold; pKd [5]: 6.49; ΔTm at 200 µM ([3]; Table 2, [L] = 200 μM): 2.7 °C
8 | O=C(O)c1cc(I)c(-n2ccc(C(F)(F)F)c2)c(I)c1O [compound 23] | 4.00 | 0.26 | 0.5 |  | fold reduction in binding affinity compared with 4 [2]: approximately 5 fold
9 | O=C(O)c1cc(I)c(-n2ccc(Cl)c2)c(I)c1O [compound 20] | 4.42 | 0.33 | 1.5 |  | 
10 | Cc1ccc(C)n1-c1c(I)cc(C(=O)O)c(O)c1I [compound 45] | 4.11 | 0.30 | 1.1 | 215 °C (dec.) | fold reduction in binding affinity compared with 4 [2]: 3 fold
11 | O=C(O)c1cc(I)c(-n2ccc(F)c2)c(I)c1O [compound 21] | 4.82 | 0.37 | 1.9 | 270 to 271 °C (dec.) | 
12 | O=C(O)c1cc(I)c(OCC(F)(F)F)c(I)c1O [compound 24] |  |  | 0.3 |  | 
13 | Cc1cccn1-c1c(I)cc(C(=O)O)c(O)c1I [compound 43] | 3.70 | 0.28 | 1.5 |  | 
14 | O=C(O)c1cc(I)c(-n2ccc3ccccc32)c(I)c1O [compound 19] |  |  | -0.3 | 183 to 184 °C (dec.) | ΔTm (°C) [L] = 200 μM [3]: induced virtually no stabilization
15 | CCn1c2ccc(CNC)cc2c2ccc(-c3cc(C)cs3)cc21 [compound 1] |  |  |  |  | thermal shift (ΔTm) to the protein melting temperature ([4]; 250 μM [ligand]): over 3 °C; pKd ([1]; binding to the Y220C pocket): 5.70; selective cell viability reduction ([6]; HUH-7 and NUGC-3 (p53-Y220C) versus HUH7-F1 (p53-Y220C KO) and NUGC-4 (p53-WT), narrow concentration range): induces selective cell viability reduction; p53 aggregation [7]: reduces p53 aggregation in vitro
16 | CCN(CC)c1nc2c(C(=O)O)c(O)c(I)c(-n3ccc(Cl)c3)c2s1 [compound 89] |  |  |  |  | LE (kcal/mol/NHA) ([2]; Table 2): 0.31 kcal/mol/NHA; fold weaker binding affinity compared with MB710 (2) ([2]; versus parent 2): ca. 2 fold; pKd [5]: 5.72; ΔTm at 200 µM ([3]; Table 2, [L] = 200 μM): 2 °C
17 | CCNC(=O)c1c(O)c(I)c(-n2cccc2)c2sc(N(CC)CC)nc12 [compound 3] |  |  |  |  | stabilization of p53-Y220C (DSF) [4]: stabilize p53-Y220C in vitro in a concentration-dependent manner; pKd ([1]; literature value, ITC): 5.40; NUGC-3 viability [8]: < 10%; selective cell viability reduction ([6]; HUH-7, BXPC-3, NUGC-3 versus NUGC-4, SW1088, WI38, HUH-7 p53-Y220C KO): induces selective cell viability reduction; transcription of p53 target genes [9]: enhanced and selective transcription of p53 target genes
18 | O=C(O)c1cc(I)c(-n2ccnc2)c(I)c1O [compound 18] |  |  | 1 | 238 °C (dec.) | 
19 | CCOc1c(I)cc(C(=O)O)c(O)c1I [compound 63] | 4.07 | 0.37 | 1.5 | 194 to 195 °C (dec.) | 
20 | Cc1ccn(-c2c(I)cc(C(=O)O)c(O)c2I)c1 [compound 44] | 3.80 | 0.29 | 1.5 |  | 
21 | O=C(O)c1cc(I)c(-n2cccn2)c(I)c1O [compound 17] |  |  | 0.7 | 241 °C (dec.) | 
22 | O=C(O)c1cc(I)c(-n2cccc2)c(I)c1O [compound 4] | 4.66 | 0.37 | 1.8 | 199 to 200 °C (dec.) | 

The next lines start with results.

Row | pKd ([2]; Table 1, ITC, [prot] = 50 μM) | LE (kcal/mol/NHA) ([2]; Table 1) | ΔTm at 200 µM ([3]; Table 1, [L] = 200 μM) [°C] | melting point | Structure (SMILES) | other results
23 | 4.00 | 0.34 | 1.1 |  | CCCOc1c(I)cc(C(=O)O)c(O)c1I [compound 64] | 
24 |  |  | 0.5 | 182 to 183 °C (dec.) | O=C(O)c1cc(I)c(OCCC(F)(F)F)c(I)c1O [compound 65] | 
25 |  |  | 0.3 |  | Cc1c(I)cc(C(=O)O)c(O)c1I [compound 74] | 
26 |  |  | 1.5 | 147 °C (dec.) | CCNc1ccc(C(=O)O)c(O)c1I [compound 67] | 
27 |  |  | 0.3 | 146 °C (dec.) | O=C(O)c1cc(I)c(N2CCCC2)c(I)c1O [compound 70] | Kd (μM) ([2]; Table 1, ITC, [prot] = 50 μM): did not exhibit measurable binding nor thermal stabilization; ΔTm (°C) [L] = 200 μM [3]: did not exhibit measurable binding nor thermal stabilization
28 | 4.40 | 0.40 | 0.9 |  | CCCc1c(I)cc(C(=O)O)c(O)c1I [compound 76] | 
29 | 4.59 | 0.45 | 1.5 | 188 to 189 °C (dec.) | CCc1c(I)cc(C(=O)O)c(O)c1I [compound 75] | 
30 |  |  |  | 216 to 217 °C | CCN(CC)c1nc2c(C(=O)O)c(O)c(I)c(-n3cc(F)c(F)c3)c2s1 [compound 88] | LE (kcal/mol/NHA) ([2]; Table 2): 0.34 kcal/mol/NHA; pKd [5]: 6.41; ΔTm at 200 µM ([3]; Table 2, [L] = 200 μM): 1.8 °C

— publication PMC9667543, “Discovery of Nanomolar-Affinity Pharmacological Chaperones Stabilizing the Oncogenic p53 Mutant Y220C” (ACS Pharmacology & Translational Science, 2022)
